What was measured:
soybean = assay: Test B pre/postemergence soybean; type: in vivo, Glycine max; settings: for Soybean plant response rating: scale of 0 to 10 where 0 is no effect and 10 is complete control
Method in brief: (§1)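 Herbicidal effect was estimated by eye on a ten-point control scale after plants spent twelve to sixteen days in a greenhouse following soil or foliar treatment. Foliar sprays targeted plants at one to four leaves; all doses were formulated in a non-phytotoxic solvent with surfactant.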

green foxtail = assay: Test E green foxtail; type: in vivo, Setaria viridis; settings: Preemergence
Italian ryegrass = assay: Test E Italian ryegrass; type: in vivo, Lolium multiflorum; settings: Preemergence
blackgrass = assay: Test E blackgrass; type: in vivo, Alopecurus myosuroides; settings: Preemergence
cocklebur = assay: Test B pre/postemergence cocklebur; type: in vivo, Xanthium strumarium; settings: for Cocklebur plant response rating: scale of 0 to 10 where 0 is no effect and 10 is complete control
Method in brief: as §1

morningglory = assay: Test B pre/postemergence morningglory; type: in vivo, Ipomoea hederacea; settings: for Morningglory plant response rating: scale of 0 to 10 where 0 is no effect and 10 is complete control
Method in brief: as §1

pigweed = assay: Test B pre/postemergence pigweed; type: in vivo, Amaranthus retroflexus; settings: for Redroot pigweed plant response rating: scale of 0 to 10 where 0 is no effect and 10 is complete control
Method in brief: as §1

winter barley = assay: Test E winter barley; type: in vivo, Hordeum vulgare; settings: Preemergence
winter wheat [1] = assay: Test E winter wheat; type: in vivo, Triticum aestivum; settings: Postemergence, 0 to 100 scale, 0 is no effect, 100 is complete control
Method in brief: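 For postemergence, sowings are timed so plants reach the 1- to 4-leaf stage at spraying. Test compound is applied in a surfactant-containing solvent mixture that is non-phytotoxic. Response is judged by eye against untreated controls after approximately 21 to 28 days.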

winter wheat [2] = assay: Test E winter wheat; type: in vivo, Triticum aestivum; settings: Preemergence
wild oat = assay: Test E wild oat; type: in vivo, Avena fatua; settings: Preemergence
[3] = Postemergence, Rate 125 g/ha, scale 0 to 10, 0 is no effect, 10 is complete control
[4] = Preemergence, Rate 62 g/ha, scale 0 to 10 (0 no effect, 10 complete control)
[5] = Rate 500 g/ha, Postemergence, scale 0 to 10, 0 no effect, 10 complete control
[6] = Rate 125 g/ha, 0 to 100 scale (0 no effect, 100 complete control)
[7] = Rate 500 g/ha, 0 to 100 scale (0 no effect, 100 complete control)
[8] = Rate 250 g/ha, 0 to 100 scale, 0 no effect, 100 complete control
[9] = Postemergence, Rate 250 g/ha, scale 0 to 10, 0 is no effect, 10 is complete control

Structure (SMILES): CC(C)N(C(=O)n1oc(=O)n(C2CCC2)c1=O)c1ccc(F)cc1F [Compound 351]
- Plant response rating, Soybean (soybean; [3]): 1
- Plant response rating, Soybean (soybean; [4]): 0
- Soybean plant response rating (0 to 10 scale) (soybean; Preemergence, Rate 125 g/ha): 0
- Soybean plant response rating (soybean; Preemergence, Rate 250 g/ha): 0
- Soybean plant response rating (soybean; Preemergence, Rate 500 g/ha): 2
- Soybean plant response rating (soybean; Rate 62 g/ha, Postemergence): 1
- Plant response rating, Soybean (soybean; [5]): 2
- Plant response rating, Green foxtail (green foxtail; [6]): 40
- Plant response rating, Green foxtail (green foxtail; Rate 250 g/ha, 0 to 100 scale): 90
- Plant response rating, Green foxtail (green foxtail; [7]): 85
- Plant response rating, I. Ryegrass (Italian ryegrass; [6]): 55
- Plant response rating, I. Ryegrass (Italian ryegrass; Rate 250 g/ha, 0 to 100 scale): 60
- Plant response rating, I. Ryegrass (Italian ryegrass; [7]): 60
- Plant response rating, Blackgrass (blackgrass; [6]): 35
- Plant response rating, Blackgrass (blackgrass; Rate 250 g/ha, 0 to 100 scale): 85
- Plant response rating, Blackgrass (blackgrass; [7]): 100
- Plant response rating, Cocklebur (cocklebur; [3]): 0
- Plant response rating, Cocklebur (cocklebur; [4]): 0
- Cocklebur plant response rating (0 to 10 scale) (cocklebur; Preemergence, Rate 125 g/ha): 0
- Cocklebur plant response rating (cocklebur; Preemergence, Rate 250 g/ha): 0
- Cocklebur plant response rating (cocklebur; Preemergence, Rate 500 g/ha): 0
- Cocklebur plant response rating (cocklebur; Rate 62 g/ha, Postemergence): 0
- Plant response rating, Cocklebur (cocklebur; [5]): 2
- Plant response rating, Morningglory (morningglory; [3]): 4
- Plant response rating, Morningglory (morningglory; [4]): 0
- Morningglory plant response rating (0 to 10 scale) (morningglory; Preemergence, Rate 125 g/ha): 0
- Morningglory plant response rating (morningglory; Preemergence, Rate 250 g/ha): 0
- Morningglory plant response rating (morningglory; Preemergence, Rate 500 g/ha): 0
- Morningglory plant response rating (morningglory; Rate 62 g/ha, Postemergence): 3
- Plant response rating, Morningglory (morningglory; [5]): 6
- Plant response rating, Redroot pigweed (pigweed; [3]): 0
- Plant response rating, Redroot pigweed (pigweed; [4]): 10
- Redroot pigweed plant response rating (0 to 10 scale) (pigweed; Preemergence, Rate 125 g/ha): 10
- Redroot pigweed plant response rating (pigweed; Preemergence, Rate 250 g/ha): 10
- Redroot pigweed plant response rating (pigweed; Preemergence, Rate 500 g/ha): 10
- Redroot pigweed plant response rating (pigweed; Rate 62 g/ha, Postemergence): 0
- Plant response rating, Redroot pigweed (pigweed; [5]): 7
- Plant response rating, Barley (winter) (winter barley; [6]): 70
- Plant response rating, Barley (winter) (winter barley; [8]): 70
- Plant response rating, Barley (winter) (winter barley; [7]): 80
- Plant response rating, Wheat (winter) (winter wheat [1]; Rate 125 g/ha): 60
- Plant response rating, Wheat (winter) (winter wheat [1]; Rate 250 g/ha): 70
- Plant response rating, Wheat (winter) (winter wheat [1]; Rate 500 g/ha): 75
- Plant response rating, Wheat (winter) (winter wheat [2]; [6]): 50
- Plant response rating, Wheat (winter) (winter wheat [2]; Rate 250 g/ha, 0 to 100 scale): 60
- Plant response rating, Wheat (winter) (winter wheat [2]; [7]): 70
- Plant response rating, Wild oat (wild oat; [6]): 70
- Plant response rating, Wild oat (wild oat; Rate 250 g/ha, 0 to 100 scale): 70
- Plant response rating, Wild oat (wild oat; [7]): 80

Structure (SMILES): CC1CC1n1c(=O)on(C(=O)N(c2ccccc2)C(C)C)c1=O (stereo not shown) [Compound 370]
- Plant response rating, Soybean (soybean; [3]): 2
- Plant response rating, Soybean (soybean; [9]): 3
- Plant response rating, Soybean (soybean; [4]): 0
- Soybean plant response rating (0 to 10 scale) (soybean; Preemergence, Rate 125 g/ha): 0
- Soybean plant response rating (soybean; Preemergence, Rate 250 g/ha): 2
- Soybean plant response rating (soybean; Preemergence, Rate 500 g/ha): 7
- Soybean plant response rating (soybean; Rate 62 g/ha, Postemergence): 1
- Plant response rating, Soybean (soybean; [5]): 4
- Plant response rating, Green foxtail (green foxtail; [6]): 70
- Plant response rating, Green foxtail (green foxtail; Rate 250 g/ha, 0 to 100 scale): 100
- Plant response rating, Green foxtail (green foxtail; [7]): 100
- Plant response rating, I. Ryegrass (Italian ryegrass; [6]): 55
- Plant response rating, I. Ryegrass (Italian ryegrass; Rate 250 g/ha, 0 to 100 scale): 85
- Plant response rating, I. Ryegrass (Italian ryegrass; [7]): 90
- Plant response rating, Blackgrass (blackgrass; [6]): 50
- Plant response rating, Blackgrass (blackgrass; Rate 250 g/ha, 0 to 100 scale): 70
- Plant response rating, Blackgrass (blackgrass; [7]): 100
- Plant response rating, Cocklebur (cocklebur; [3]): 0
- Plant response rating, Cocklebur (cocklebur; [9]): 2
- Cocklebur plant response rating (0 to 10 scale) (cocklebur; Preemergence, Rate 125 g/ha): 0
- Cocklebur plant response rating (cocklebur; Preemergence, Rate 250 g/ha): 0
- Cocklebur plant response rating (cocklebur; Preemergence, Rate 500 g/ha): 10
- Cocklebur plant response rating (cocklebur; Rate 62 g/ha, Postemergence): 0
- Plant response rating, Cocklebur (cocklebur; [5]): 3
- Plant response rating, Morningglory (morningglory; [3]): 10
- Plant response rating, Morningglory (morningglory; [9]): 10
- Plant response rating, Morningglory (morningglory; [4]): 0
- Morningglory plant response rating (0 to 10 scale) (morningglory; Preemergence, Rate 125 g/ha): 0
- Morningglory plant response rating (morningglory; Preemergence, Rate 250 g/ha): 2
- Morningglory plant response rating (morningglory; Preemergence, Rate 500 g/ha): 3
- Morningglory plant response rating (morningglory; Rate 62 g/ha, Postemergence): 10
- Plant response rating, Morningglory (morningglory; [5]): 10
- Plant response rating, Redroot pigweed (pigweed; [3]): 0
- Plant response rating, Redroot pigweed (pigweed; [9]): 0
- Plant response rating, Redroot pigweed (pigweed; [4]): 5
- Redroot pigweed plant response rating (0 to 10 scale) (pigweed; Preemergence, Rate 125 g/ha): 7
- Redroot pigweed plant response rating (pigweed; Preemergence, Rate 250 g/ha): 10
- Redroot pigweed plant response rating (pigweed; Preemergence, Rate 500 g/ha): 10
- Redroot pigweed plant response rating (pigweed; Rate 62 g/ha, Postemergence): 0
- Plant response rating, Redroot pigweed (pigweed; [5]): 3
- Plant response rating, Barley (winter) (winter barley; [6]): 60
- Plant response rating, Barley (winter) (winter barley; [8]): 60
- Plant response rating, Barley (winter) (winter barley; [7]): 70
- Plant response rating, Wheat (winter) (winter wheat [1]; Rate 125 g/ha): 70
- Plant response rating, Wheat (winter) (winter wheat [1]; Rate 250 g/ha): 80
- Plant response rating, Wheat (winter) (winter wheat [1]; Rate 500 g/ha): 85
- Plant response rating, Wheat (winter) (winter wheat [2]; [6]): 50
- Plant response rating, Wheat (winter) (winter wheat [2]; Rate 250 g/ha, 0 to 100 scale): 40
- Plant response rating, Wheat (winter) (winter wheat [2]; [7]): 60
- Plant response rating, Wild oat (wild oat; [6]): 60
- Plant response rating, Wild oat (wild oat; Rate 250 g/ha, 0 to 100 scale): 75
- Plant response rating, Wild oat (wild oat; [7]): 90

Structure (SMILES): CC1CC1n1c(=O)on(C(=O)N(c2ccc(F)cc2)C(C)C)c1=O (stereo not shown) [Compound 371]
- Plant response rating, Soybean (soybean; [3]): 1
- Plant response rating, Soybean (soybean; [9]): 1
- Plant response rating, Soybean (soybean; [4]): 0
- Soybean plant response rating (0 to 10 scale) (soybean; Preemergence, Rate 125 g/ha): 0
- Soybean plant response rating (soybean; Preemergence, Rate 250 g/ha): 0
- Soybean plant response rating (soybean; Preemergence, Rate 500 g/ha): 2
- Soybean plant response rating (soybean; Rate 62 g/ha, Postemergence): 1
- Plant response rating, Soybean (soybean; [5]): 4
- Plant response rating, Green foxtail (green foxtail; [6]): 35
- Plant response rating, Green foxtail (green foxtail; Rate 250 g/ha, 0 to 100 scale): 60
- Plant response rating, Green foxtail (green foxtail; [7]): 85
- Plant response rating, I. Ryegrass (Italian ryegrass; [6]): 60
- Plant response rating, I. Ryegrass (Italian ryegrass; Rate 250 g/ha, 0 to 100 scale): 70
- Plant response rating, I. Ryegrass (Italian ryegrass; [7]): 90
- Plant response rating, Blackgrass (blackgrass; [6]): 85
- Plant response rating, Blackgrass (blackgrass; Rate 250 g/ha, 0 to 100 scale): 100
- Plant response rating, Blackgrass (blackgrass; [7]): 100
- Plant response rating, Cocklebur (cocklebur; [3]): 0
- Plant response rating, Cocklebur (cocklebur; [9]): 0
- Plant response rating, Cocklebur (cocklebur; [4]): 0
- Cocklebur plant response rating (0 to 10 scale) (cocklebur; Preemergence, Rate 125 g/ha): 0
- Cocklebur plant response rating (cocklebur; Preemergence, Rate 250 g/ha): 0
- Cocklebur plant response rating (cocklebur; Preemergence, Rate 500 g/ha): 0
- Cocklebur plant response rating (cocklebur; Rate 62 g/ha, Postemergence): 0
- Plant response rating, Cocklebur (cocklebur; [5]): 0
- Plant response rating, Morningglory (morningglory; [3]): 7
- Plant response rating, Morningglory (morningglory; [9]): 7
- Plant response rating, Morningglory (morningglory; [4]): 0
- Morningglory plant response rating (0 to 10 scale) (morningglory; Preemergence, Rate 125 g/ha): 0
- Morningglory plant response rating (morningglory; Preemergence, Rate 250 g/ha): 0
- Morningglory plant response rating (morningglory; Preemergence, Rate 500 g/ha): 3
- Morningglory plant response rating (morningglory; Rate 62 g/ha, Postemergence): 7
- Plant response rating, Morningglory (morningglory; [5]): 10
- Plant response rating, Redroot pigweed (pigweed; [3]): 0
- Plant response rating, Redroot pigweed (pigweed; [9]): 2
- Plant response rating, Redroot pigweed (pigweed; [4]): 4
- Redroot pigweed plant response rating (0 to 10 scale) (pigweed; Preemergence, Rate 125 g/ha): 10
- Redroot pigweed plant response rating (pigweed; Preemergence, Rate 250 g/ha): 10
- Redroot pigweed plant response rating (pigweed; Preemergence, Rate 500 g/ha): 10
- Redroot pigweed plant response rating (pigweed; Rate 62 g/ha, Postemergence): 0
- Plant response rating, Redroot pigweed (pigweed; [5]): 5
- Plant response rating, Barley (winter) (winter barley; [6]): 40
- Plant response rating, Barley (winter) (winter barley; [8]): 60
- Plant response rating, Barley (winter) (winter barley; [7]): 70
- Plant response rating, Wheat (winter) (winter wheat [1]; Rate 125 g/ha): 70
- Plant response rating, Wheat (winter) (winter wheat [1]; Rate 250 g/ha): 65
- Plant response rating, Wheat (winter) (winter wheat [1]; Rate 500 g/ha): 80
- Plant response rating, Wheat (winter) (winter wheat [2]; [6]): 60
- Plant response rating, Wheat (winter) (winter wheat [2]; Rate 250 g/ha, 0 to 100 scale): 60
- Plant response rating, Wheat (winter) (winter wheat [2]; [7]): 65
- Plant response rating, Wild oat (wild oat; [6]): 70
- Plant response rating, Wild oat (wild oat; Rate 250 g/ha, 0 to 100 scale): 85
- Plant response rating, Wild oat (wild oat; [7]): 90

Source: patent US6737383B1, “Herbicidal oxadiazolidines” (priority 1999, dated 2004)
